Tests used:
[1] = tested on: CHO.DXB11 cells; experiment: Media supplementation with fatty acids, methyl esters, sterols, glycerides and isoprenoids, mAb1 production; type: cell-based, Chinese hamster; settings: supplement in ethanol fed daily per Table 5 (2.7-10.7 μM, ethanol 0.05% v/v) vs control
Procedure: (§1) Monoclonal antibodies 1 (mAb1) and 4 (mAb4) were produced using two separate cell lines according to methods described in the previous Examples. Titer, percent of high molecular weight and low molecular weight species, acidic and basic charge variants, and glycosylation species profiles were assessed as in the previous Examples.
(§2) Fatty acids were dissolved in ethanol and fed daily according to Table 5 using two different process strategies for mAb1 and mAb4. The mAb1 process strategy was maintained at 37° C. then shifted to 31° C. during late exponential phase, with the pH being maintained at 7.0±0.2 throughout the culture. The mAb4 process strategy was maintained at 36.5° C. then shifted to 33° C. during production phase, with the pH being shifted from 7.0±0.1 to 6.8±0.1 in the late exponential phase. Both process strategies were maintained at 30% air saturation

[2] = tested on: cell line producing mAb4; experiment: Media supplementation with fatty acids, methyl esters, sterols, glycerides and isoprenoids, mAb4 production; type: cell-based; settings: supplement in ethanol fed daily per Table 5 (5.0-20.0 μM, ethanol 0.09% v/v) vs control
Procedure: as §1, §2

[3] = tested on: CHO.DXB11 cells; experiment: Oleic acid in bench-scale bioreactors, baseline without fatty acids or ethanol, mAb 1; type: cell-based, Chinese hamster; settings: oleic acid 40 μM + ethanol 0.057% v/v fed daily vs baseline without both, 14 day fed-batch
From the text: Feed media was supplemented with fatty acids to determine if fatty acids altered mAb properties. Feed media was fed daily in a fed-batch process using bench-scale (2 L working volume) bioreactors.

[4] = tested on: CHO.DXB11 cells; experiment: Oleic acid in bench-scale bioreactors, baseline with ethanol, mAb 1; type: cell-based, Chinese hamster; settings: oleic acid 40 μM fed daily vs baseline w/ethanol, 14 day fed-batch
From the text: Ethanol supplemented media was further supplemented with fatty acids to determine if fatty acids altered mAb properties. Feed media was fed daily in a fed-batch process using bench-scale (2 L working volume) bioreactors. […] Media used for baseline measurements contains ethanol but no fatty acids.

[5] = tested on: CHO.DXB11 derived clone; experiment: Sodium chloride supplementation, microscale bioreactors, mAb3; type: cell-based, Chinese hamster; settings: sodium chloride 4.59 mM and 9.18 mM fed daily, 12 day fed-batch
Procedure: Monoclonal antibody 3 (mAb3) is a monoclonal antibody produced using recombinant DNA technology. The expression vector is fully synthetic with both heavy- and light-chain gene sequences regulated by strong constitutive promoters. Gene sequences were confirmed by DNA sequencing. The expression vector was linearized by restriction enzymes and stably transfected into CHO.DXB11 cells by electroporation. Gene amplification steps were performed with increasing concentrations of methotrexate. Single cell cloning was performed after gene amplification. Select single cell clones were expanded and cryopreserved. The cell line used was a CHO.DXB11 derived clone.
Sodium chloride was fed daily at 4.59 mM and 9.18 mM using two different process strategies. Process strategy 1 was maintained at 36.5° C. then shifted to 31° C. during production phase. Process strategy 2 was maintained at 36.5° C. then shifted to 31° C. during production phase then re-shifted back to 36.5° C. during late production phase. Both process strategies were maintained at 30% air saturation and a pH of 7.0±0.2. Other glycan species and HMW % and LMW % are not listed because no significant change in levels were observed from sodium chloride supplementation.

[6] = process strategies 1 and 2, mAb3

Row | Molecule | Effect on G0F glycan species [1] | Effect on acidic charge variants [1] | Effect on low molecular weight species [1] | Effect on acidic charge variants [2] | Effect on relative percentage of G0 glycan species [2] | Effect on relative percentage of HMW species [2] | Effect on relative percentage of Man5 glycan species [2] | Effect on relative percentage of basic charge variants [2] | Effect on G0 glycan species [1] | Effect on LMW species [2] | further results
1 | CCCCCCCC(=O)OCC(O)CO (racemic) [1-octanoyl-rac-glycerol] | decreased | decreased | decreased | decreased | decreased | decreased | decreased | decreased |  |  | Effect on titer [1]: increased; Effect on relative percentage of G0F glycan species [2]: decreased
2 | CC(C)CCC[C@@H](C)[C@H]1CC[C@H]2[C@@H]3CC=C4C[C@@H](O)CC[C@]4(C)[C@H]3CC[C@]12C [cholesterol] |  |  |  |  | decreased |  | decreased | decreased | Decreased |  | Effect on basic charge variants [1]: decreased
3 | CCCCC/C=C\C/C=C\CCCCCCCC(=O)O [linoleic acid] |  | decreased | decreased | decreased | decreased |  | decreased |  |  | decreased | Effect on titer [1]: increased
4 | CCCCCCCC(=O)OC [methyl octanoate] | decreased | decreased |  |  | decreased | decreased | decreased | decreased | Decreased |  | 
5 | CCCCCCCCCCCCCC(=O)O [myristic acid] | decreased | decreased |  | decreased | decreased | decreased | decreased | decreased | Decreased |  | 
6 | CCCCCCCC/C=C\CCCCCCCC(=O)O [oleic acid] | decreased | decreased |  | decreased | decreased |  | decreased |  | Decreased |  | Effect on G0F glycan species [3]: decreased; Effect on G0 glycan species [3]: decreased; Effect on G1F glycan species [3]: increased; Effect on G2F glycan species [3]: increased; Effect on Man5 glycan species [3]: decreased; Effect on acidic charge variants [3]: decreased; Effect on high molecular weight species [3]: decreased; Effect on monoclonal antibody titer [3]: increased; Effect on G0F glycan species [4]: increased; Effect on G0 glycan species [4]: decreased; Effect on G1F glycan species [4]: decreased; Effect on G2F glycan species [4]: decreased; Effect on Man5 glycan species [4]: decreased; Effect on acidic charge variants [4]: decreased; Effect on antibody titer [4]: decreased; Effect on basic charge variants [4]: increased; Effect on high molecular weight species [4]: increased; Effect on low molecular weight species [4]: increased
7 | CCCCCCCCCCCCCCCC(=O)O [palmitic acid] |  | decreased | decreased | decreased |  |  |  |  | Decreased | decreased | Effect on basic charge variants [1]: decreased
8 | [Cl-].[Na+] [sodium chloride] |  |  |  |  |  |  |  |  |  |  | Effect on HMW % ([5]; mAb3): did not change; Effect on LMW % ([5]; mAb3): did not change; Effect on G0F glycan species [5, 6]: decreased; Effect on G0 glycan species [5, 6]: increased; Effect on G1F glycan species [5, 6]: increased; Effect on G2F glycan species [5, 6]: increased; Effect on Man5 glycan species [5, 6]: increased; Effect on acidic charge variants [5, 6]: increased; Effect on basic charge variants [5, 6]: increased; Effect on monoclonal antibody titer [5, 6]: decreased; Effect on monoclonal antibody titer ([5]; process strategies 1 and 2, mAb3, listed as Sodium chloride): reduced
9 | CCCCCCCCCCCCCCCCCC(=O)O [stearic acid] |  |  | decreased | decreased |  |  |  |  | Decreased |  | Effect on basic charge variants [1]: decreased
10 | Cc1ccc(C(C)C)c(O)c1 [thymol] |  | decreased | decreased | decreased |  | decreased | decreased | decreased | Decreased | decreased | Effect on titer [1]: increased
11 | cholesteryl acetate | decreased |  |  | decreased | decreased | decreased | decreased | decreased | Decreased | decreased | Effect on Man5 glycan species [1]: Decreased

Source: US10703800B2, “Cell culture medium” (La Jolla Biologics, Inc., priority 2016, dated 2020)
